“And” between values parts separate entries of the source, which are not always exact repeats. Equal entries are not always repeated. Where two headings read alike, the source gives them in different places. Blank lines part the entries; values can stand above or below the compound they belong to.
Key:
[1] = from C=CCCCn1nnc2c(C)c([C@@H](CC(=O)OC)c3ccc4c(c3)CN(C(=O)c3ccc(CC=C)cc3)CC4)ccc21; rcm bond; Grubbs catalyst
[2] = system: genes of interest (GOI) in HUDEP cells; test: Gene expression by qPCR in HUDEP cells treated with compound titration; format: cell-based; conditions: HbG, read-out: HUDEP HbG EC50 (μM) (Num)
Description: Evaluation of the gene expression by qPCR in HUDEP cells treated with titration of novel compounds. HUDEP Compound Treatment Method
HUDEP cells were plated in 96-well plates, @ 25,000 cells per well in 200 μL of maintenance media. Compounds were added in a 10-point dose response starting at 10 uM with 1/3 dilution scheme using the HP digital diluter. A DMSO control was run to all for normalization of DMSO. The compounds were incubated for 48 hours in 37° C. incubator with 5% CO2. Post incubation, total RNA was isolated using Cells to Ct kit and gene expression was evaluated for genes of interest (GOI) after normalizing to a housekeeping gene. The ΔΔCT was calculated and compared to the DMSO control.
Cell Lysis, Isolation and Gene Expression Materials
Cells to Ct is a kit offered by Applied Biosystems. mRNA prepared using this kit can be directly used for cDNA conversion followed subsequently with qPCR for gene expression analysis
Cell lysis and preparation of RNA: For suspension cells such as HUDEPs, 10,000-100,000 cells (as per kit guidelines) were used for making lysates. The plate was centrifuged at 1500 rpm for 5 mins and the cells were pelleted. Spent medium was removed using a multi-channel pipette. 200 μL ice-cold PBS was added to all treated wells, followed by centrifuging at 1500 rpm for 5 mins 195 μL cold PBS were aspirated from all treatment wells without disturbing the cell monolayer.
To prepare the Cells to CT lysis solution, 49.5 μL of the Cells to CT Lysis Buffer and 0.5 μL/well DNase I (returned DNase I reagent to the −20 C freezer immediately after pipetting) were added to each well. The Cells to CT lysis solution was pipetted to a reservoir and 50 μL were added per well to the treated wells. (Mix 35 μL 5 times without creating bubbles and set timer to 5 mins. At the end of the 5-minute incubation, add 5 μL of stop solution with a multichannel pipet touching the tip to the liquid. Then mix 35 μL 5 times without creating bubbles and set timer to 2 mins.)
The plates were sealed and stored at −20° C. until cDNA synthesis. Optionally they were placed on ice to allow for directly moving to the cDNA synthesis.
cDNA Synthesis: The cell lysate plates were thawed on ice if necessary and mixed 4 times with a multi-channel pipette. 4 μL of Superscript IV VILO and 6 μL of Nuclease free water were combined together for each sample. The mixture was poured into a reservoir and 10 μL was pipetted into each well of a 96-well PCR plate. 10 μL of lysate prepared previously was added and mixed 5 times. The wells were completely sealed, especially around the edges, with plate sealing film using the plate sealing paddle. The PCR plate was centrifuged to pull down the sample to the bottom of the wells. The lysate plate was sealed and returned to the −20° C. freezer as soon as possible. The PCR plate was placed in the thermal cycler and run at 20 μL at 25° C. for 10 minutes, 50° C. for 10 minutes, 85° C. for 5 minutes and then 4° C.
Real Time PCR: The cDNA plate was thawed at room temperature when necessary and 30 μL nuclease free water was added to each cell lysate, followed by mixing, up and down 4 times with a pipette. The primers were thawed for the genes of interest—both housekeeping gene (HKG) and gene(s) of interest (GOI).
A template was prepared and the number of wells needed for each gene of interest (GOI) calculated. Each sample required 2 μL of cDNA, 5 μL of Taqman Master Mix, 0.16667 μL of GOI at 60 times concentration, 0.16667 μL of HKG at 60 times concentration and 2.6667 μL of nuclease free water. If genes at 20 times concentration were used, then 2 μL cDNA, 5 μL Taqman Master Mix, 0.5 GOI, 0.5 μL HKG and 2 μL of nuclease free water were combined for each well.
After calculating the number of wells for each gene, GOI, HKG, Taqman Master Mix and Nuclease free water were combined. 8 μL were pipetted in to each well of the 384-well PCR plate as detailed in the template. […]

[3] = molecular target: HIS-Keap1 full length / Biotin-Nrf2 (16-mer) (Homo sapiens, UniProt Q14145); test: biochemical
[4] = system: NQO1 activation in BEAS-2B cells; test: BEAS-2B cellular MTT assay of NQO1 activation, 0% HSA; format: cell-based
How it was run: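 For the 0% HSA condition, cells were seeded into collagen plates in HSA-free medium. Culture was BEAS-2B in BEBM plus BEGM SingleQuots lacking GA-1000, held under 70% confluence, at a seeding density reaching 95-100% confluence by 48 h.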

[5] = system: NQO1 activation in BEAS-2B cells; test: BEAS-2B cellular MTT assay of NQO1 activation, 0.3% HSA; format: cell-based
How it was run: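 MTT read-out in BEAS-2B cells grown in BEBM with SingleQuots, no GA-1000, kept below 70% confluence; plates coated with collagen, with 0.3% or 0% HSA medium, seeded to 95-100% confluency at 48 h, 37 °C, 5% CO2.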

[6] = the molecule shown is the open-chain precursor
[7] = Homo sapiens, serum free, read-out: BEAS EC50 (nM) serum free
[8] = serum free, read-out: BEAS EC50 (nM) serum free
[9] = Homo sapiens, BEAS+, read-out: BEAS+ EC50
[10] = Homo sapiens, Serum Free W, read-out: BEAS EC50 (nM) Serum Free W
[11] = Serum Free W, read-out: BEAS EC50 (nM) Serum Free W
[12] = BEAS+ W, read-out: BEAS+ W EC50
[13] = Homo sapiens, BEAS+ W, read-out: BEAS+ W EC50
[14] = rcm bond, 22-membered ring, Grubbs catalyst (General procedure 7)

Sequence of HIS-Keap1 full length / Biotin-Nrf2 (16-mer) (Q14145 whole entry): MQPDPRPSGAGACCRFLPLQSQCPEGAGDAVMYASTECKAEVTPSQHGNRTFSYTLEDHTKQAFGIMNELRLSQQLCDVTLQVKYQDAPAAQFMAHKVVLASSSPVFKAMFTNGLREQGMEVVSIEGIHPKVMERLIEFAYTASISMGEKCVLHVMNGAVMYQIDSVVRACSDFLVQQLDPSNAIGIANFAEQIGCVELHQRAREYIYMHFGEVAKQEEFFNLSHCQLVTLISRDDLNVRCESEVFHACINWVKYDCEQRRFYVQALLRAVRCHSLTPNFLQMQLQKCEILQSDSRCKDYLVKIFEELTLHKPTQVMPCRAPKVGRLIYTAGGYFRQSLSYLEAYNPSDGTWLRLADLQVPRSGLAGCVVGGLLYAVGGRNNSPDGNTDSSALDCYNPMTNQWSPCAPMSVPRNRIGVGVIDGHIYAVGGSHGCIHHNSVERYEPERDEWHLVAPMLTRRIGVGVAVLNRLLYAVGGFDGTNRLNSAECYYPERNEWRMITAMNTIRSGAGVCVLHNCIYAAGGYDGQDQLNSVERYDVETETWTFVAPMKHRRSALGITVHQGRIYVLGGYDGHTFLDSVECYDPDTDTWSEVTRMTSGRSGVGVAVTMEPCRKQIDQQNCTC

Compound: COC(=O)C[C@H]1c2ccc3c(c2)CN(CC3)C(=O)c2ccc(cc2)CC=CCCCn2nnc3c(C)c1ccc32
ring closure, yield of all isomers [1]: 99%

Compound: Cc1c2ccc3c1nnn3CCCCCCc1ccc(cc1)C(=O)N1CCc3ccc(cc3C1)[C@@H]2CC(=O)O (single isomer, unassigned) [Compound 223]
EC50 [2]: 0.015 µM
IC50 [3]: 0.5 nM and 0.9 nM and 1.2 nM (2×)

EC50 [2]: 0.018 µM
Compound: Cc1cc2ccc1C(=O)N1CCc3ccc(cc3C1)[C@@H](CC(=O)O)c1ccc3c(nnn3CCCCCC2)c1C [Compound 240]
EC50 [4, 7]: 1.1 nM
EC50 [4, 8]: 0.6 nM
EC50 ([5]; BEAS+, read-out: BEAS+ EC50): 0.6 nM
EC50 [5, 9]: 1 nM

Compound: Cc1c2ccc3c1nnn3CCCCCCOc1ccc(cc1)C(=O)N1CCc3ccc(cc3C1)[C@@H]2[C@@H](C)C(=O)O [Compound 107]
EC50 [4, 10]: 3.6 nM
EC50 [4, 7]: 0.6 nM
EC50 [4, 11]: 4.1 nM
EC50 [4, 8]: 0.4 nM
EC50 [2]: 0.038 µM
IC50 [3]: 1.6 nM
EC50 [5, 12]: 32.7 nM
EC50 ([5]; BEAS+, read-out: BEAS+ EC50): 2.4 nM
EC50 [5, 13]: 16.7 nM
EC50 [5, 9]: 3.2 nM

Compound: amide of methyl 3-(1-(but-3-en-1-yl)-1H-benzo[d][1,2,3]triazol-5-yl)-3-(1,2,3,4-tetrahydroisoquinolin-7-yl)propanoate with 4-(allyloxy)benzoic acid
ring closure, isolated yield [6, 14]: 47%

Compound: O=C(O)CC1c2ccc3c(c2)CN(CC3)C(=O)c2ccc(c3ccccc23)OCCCCCCn2nnc3cc1ccc32 (centres unmarked) [Compound 338]
EC50 [4, 7]: 25.3 nM
EC50 [2]: 0.667 µM
IC50 [3]: 0.2 nM and 0.1 nM
EC50 [5, 9]: 27.5 nM

Compound: Cc1c2ccc3c1nnn3CCCCCCc1ccc(cc1)C(=O)N1CCc3ccc(cc3C1)[C@H]2[C@@H](C)C(=O)O [Compound 129]
EC50 [4, 7]: 1360 nM
EC50 [4, 8]: 1220 nM
EC50 [2]: 0.013 µM
EC50 [5, 12]: 2.2 nM and 1.6 nM and 1.9 nM
EC50 ([5]; BEAS+, read-out: BEAS+ EC50): 3080 nM
EC50 [5, 13]: 2 nM
EC50 [5, 9]: 2190 nM

Compound: amide of rel-methyl (R)-3-(1-(hex-5-en-1-yl)-4-methyl-1H-benzo[d]imidazol-5-yl)-3-(1,2,3,4-tetrahydroisoquinolin-7-yl)propanoate with 4-vinylbenzoic acid
ring closure, isolated yield ([6]; rcm bond, 22-membered ring, Grubbs II (extra portion)): 27%

Compound: O=C(O)CC1c2ccc3c(c2)CN(CC3)C(=O)c2c(F)cc(cc2F)CCCCCn2nnc3cc1ccc32 (centres unmarked) [Compound 241]
EC50 [2]: 0.095 µM
IC50 [3]: 0.4 nM

Compound: amide of methyl 3-(4-methyl-6-(pent-4-en-1-yloxy)pyridin-3-yl)-3-(1,2,3,4-tetrahydroisoquinolin-7-yl)propanoate with 4-vinylbenzoic acid
ring closure, isolated yield ([6]; rcm bond, 21-membered ring, Grubbs catalyst (General procedure 15)): 64%

Compound: free amino acid (NH tetrahydroisoquinoline, CO2H benzoic acid) from deprotection of Mitsunobu di-ether of tert-butyl 7-(3-(benzyloxy)-1-(1-(3-(2-hydroxyethoxy)propyl)-4-methyl-1H-benzo[d][1,2,3]triazol-5-yl)-3-oxopropyl)-3,4-dihydroisoquinoline-2(1H)-carboxylate with tert-butyl 2,6-difluoro-4-hydroxybenzoate
ring closure, isolated yield ([6]; amide bond, 23-membered ring, HATU/Et3N): 30%

Compound: amide of methyl 3-(4-methyl-1-(pent-4-en-1-yl)-1H-benzo[d][1,2,3]triazol-5-yl)-3-(1,2,3,4-tetrahydroisoquinolin-7-yl)propanoate with 1-methyl-5-vinyl-1H-indole-3-carboxylic acid
ring closure, isolated yield ([6]; rcm bond, 21-membered ring, Grubbs catalyst (General procedure 7)): 65%

Compound: amide of rel-methyl (S)-3-(4-methyl-1-(pent-4-en-1-yl)-1H-benzo[d][1,2,3]triazol-5-yl)-3-(1,2,3,4-tetrahydroisoquinolin-7-yl)propanoate with 4-allylbenzoic acid
ring closure, isolated yield [6, 14]: 99%

Compound: Cc1cc2ncc1C(CC(=O)O)c1ccc3c(c1)CN(CC3)C(=O)c1ccc(cc1)CCCCCO2 (centres unmarked) [Compound 157]
EC50 [4, 7]: 3.2 nM
EC50 [4, 8]: 2.1 nM
IC50 [3]: 3.8 nM and 4 nM
EC50 ([5]; BEAS+, read-out: BEAS+ EC50): 8.9 nM
EC50 [5, 9]: 9.2 nM

Compound: Cc1c2ccc3c1nnn3CCCCCCc1c(F)c(F)c(c(F)c1F)C(=O)N1CCc3ccc(cc3C1)[C@@H]2CC(=O)O [Compound 90]
EC50 [4, 10]: 1.3 nM
EC50 [4, 11]: 1 nM
IC50 [3]: 1.1 nM
EC50 [5, 12]: 3.5 nM
EC50 [5, 13]: 3.6 nM

Compound: Cc1c2ccc3c1nnn3CCCCCc1ccc(cc1)C(=O)N1CCc3ccc(cc3C1)[C@H]2CC(=O)O [Compound 286]
EC50 [4, 7]: 15.8 nM
IC50 [3]: 0.7 nM
EC50 [5, 9]: 44.5 nM

Compound: O=C(O)CC1c2ccc3c(c2)CN(CC3)C(=O)c2ccc(c(F)c2F)OCCCCCCn2nnc3cc1ccc32 (centres unmarked) [Compound 320]
EC50 [4, 7]: 332 nM
IC50 [3]: < 0.1 nM
EC50 [5, 9]: 462 nM

Compound: Cc1c2ccc3c1nnn3CCOC/C=C/c1ccc(c(F)c1)C(=O)N1CCc3ccc(cc3C1)C2CC(=O)O (centres unmarked) [Compound 365]
EC50 [4, 10]: 90 nM
EC50 [4, 11]: 171 nM
IC50 [3]: 3.4 nM and 3.6 nM
EC50 [5, 12]: 214 nM
EC50 [5, 13]: 188 nM

Compound: C[C@H](C(=O)O)[C@@H]1c2ccc3c(c2)CN(CC3)C(=O)c2ccc(cc2)OCCCCCn2nnc3cc1ccc32 [Compound 231]
EC50 [4, 7]: 153 nM
EC50 [4, 8]: 228 nM
IC50 [3]: 3.2 nM
EC50 ([5]; BEAS+, read-out: BEAS+ EC50): 227 nM
EC50 [5, 9]: 273 nM

Compound: COc1cc2ccc1CCCCCCn1nnc3c(C)c(cnc31)[C@@H](CC(=O)O)c1ccc3c(c1)CN(CC3)C2=O [Compound 96]
EC50 [4, 10]: 25.5 nM
EC50 [4, 11]: 29.4 nM
IC50 [3]: 0.8 nM
EC50 [5, 12]: 49.6 nM
EC50 [5, 13]: 42.8 nM

Compound: Cc1c2ccc3c1nnn3CCCCCc1ccc3c(c1)nc(n3C)C(=O)N1CCc3ccc(cc3C1)C2CC(=O)O (centres unmarked) [Compound 205]
EC50 [4, 7]: 318 nM
EC50 [4, 8]: 329 nM
IC50 [3]: 2.7 nM and 3 nM
EC50 ([5]; BEAS+, read-out: BEAS+ EC50): 507 nM
EC50 [5, 9]: 372 nM

Compound: Cc1nc2ccc1C(CC(=O)O)c1ccc3c(c1)CN(CC3)C(=O)c1c(F)cc(cc1F)OCCCCO2 (centres unmarked) [Compound 180]
EC50 [4, 7]: 701 nM
EC50 [4, 8]: 878 nM
IC50 [3]: 253 nM and 296 nM
EC50 ([5]; BEAS+, read-out: BEAS+ EC50): 1000 nM
EC50 [5, 9]: 1300 nM

Compound: Cc1cc2ncc1[C@H]([C@@H](C)C(=O)O)c1ccc3c(c1)CN(CC3)C(=O)c1ccc(cc1)C/C=C/CCO2 [Compound 59]
EC50 [4, 10]: 1.7 nM
EC50 [4, 11]: 1.6 nM
IC50 [3]: 8.1 nM and 7.3 nM
EC50 [5, 12]: 4.4 nM
EC50 [5, 13]: 5 nM

From patent US12692274B2, “Tetrahydroisoquinoline derivatives for the treatment of red blood disorders and inflammatory diseases” (Sanofi, priority 2020, dated 2026)
